Experimental data published in US7851487B2, “Use of tetrahydropyridines in the treatment of central nervous system disorders” (The Research Foundation of State University of New York, priority 2006, dated 2010).

How the values were obtained:
Dopamine D2L = target: T1, Dopamine D2L (Homo sapiens, UniProt P14416); test: Radioligand binding, Dopamine D2L ([3H]Spiperone)
T1 construct: host or cells: CHO cells
Experimental: (§1) The assays utilized human neuroreceptors and were performed under the experimental parameters set forth in Table 2 using standard techniques.
(§2) For Table 3, IC50 values were determined by non-linear, least squares regression analysis using Data Analysis Toolbox™ (MDL Information Systems, San Leandro, Calif., USA). Inhibition constants (KI) were calculated using the equation of Cheng and Prusoff (Cheng, Y., et al. Biochem. Pharmacol. 22:3099-3108, 1973) using the observed IC50 of the tested compound, the concentration of radioligand employed in the assay, and the values for the KD of the ligand. The Hill coefficient (nH), defining the slope of the competitive binding curve, was calculated using the Data Analysis Toolbox™. Biochemical assay results are presented as the percent inhibition of specific binding or activity unless indicated otherwise. The experiments summarized in Table 3 utilized human dopamine D1, D2 s, D21, D3, D4.2, D4.4, serotonin 5HT1A, 5HT2A, 5HT2C, 5HT6, 5HT7, dopamine transporter (DAT), serotonin transporter (SERT) and the norepinephrine transporter (NET), as indicated in Table 3.

Dopamine D1 = Dopamine D1 (Homo sapiens, UniProt P21728); test: Radioligand binding, Dopamine D1; conditions: Dopamine D1, 10 μM; read-out: Percentage Inhibition
Experimental: as §1, §2

Serotonin 5HT7 = target: T2, Serotonin 5HT7 (Homo sapiens, UniProt P34969); test: Radioligand binding, Serotonin 5HT7 ([3H]LSD)
T2 construct: host or cells: CHO cells
Experimental: as §1, §2

[1] = target: T3, Norepinephrine transporter (NET) (Homo sapiens, UniProt P23975); test: Radioligand binding, Norepinephrine transporter (NET) ([125I]RTI-55)
T3 construct: host or cells: MDCK cells
Experimental: as §1, §2

Dopamine D3 = Dopamine D3 (Homo sapiens, UniProt P35462); test: Radioligand binding, Dopamine D3; conditions: Dopamine D3, 10 μM; read-out: Percentage Inhibition
Experimental: as §1, §2

[2] = target: T4, Serotonin transporter (SERT) (Homo sapiens, UniProt P31645); test: Radioligand binding, Serotonin transporter (SERT) ([3H]Paroxetine)
T4 construct: host or cells: HEK-293 cells
Experimental: as §1, §2

Dopamine D2s = target: T5, Dopamine D2s (Homo sapiens, UniProt P14416); test: Radioligand binding, Dopamine D2S ([3H]Spiperone)
T5 construct: host or cells: CHO cells
Experimental: as §1, §2

ckr mouse = test: Prepulse inhibition (PPI) of the startle reflex in ckr mice; assay type: in vivo; conditions: 10 mg/kg
Experimental: To obtain the ckr mouse model presented in this Example, a representative compound 2 as set forth in Example 3 was used to investigate a standard measure of sensorimotor gating of the startle reflex. Sensorimotor gating of the startle reflex was assessed via measures of prepulse inhibition (PPI), which is the reduction in startle magnitude when the startling stimulus is preceded immediately by a weak prepulse. This measurement is valuable because the relative loss of PPI has been established in inherited neurodevelopmental disorders, such as schizophrenia in humans, as well as in rats after treatment with certain classes of drugs, including serotonin (5-HT) agonists. In animal models, the PPI test is considered to have good face, predictive and construct validity for sensorimotor gating deficits in schizophrenia.
A stock solution of compound 2 was dissolved in DMSO, and then diluted to 10 mg/10 ml with distilled water such that the final concentration of DMSO was 0.5%. […]
Startle reactivity was measured using a startle chamber (SR-LAB, San Diego Instruments, San Diego, Calif.). […]
The protocol for measuring PPI was adapted from known techniques. […] The startle response was recorded as the average movement detected over 65 ms following the pulse. […]
The startle amplitude was measured as the average startle response for the pulse-alone trials. […]

T4 sequence (P31645 whole entry): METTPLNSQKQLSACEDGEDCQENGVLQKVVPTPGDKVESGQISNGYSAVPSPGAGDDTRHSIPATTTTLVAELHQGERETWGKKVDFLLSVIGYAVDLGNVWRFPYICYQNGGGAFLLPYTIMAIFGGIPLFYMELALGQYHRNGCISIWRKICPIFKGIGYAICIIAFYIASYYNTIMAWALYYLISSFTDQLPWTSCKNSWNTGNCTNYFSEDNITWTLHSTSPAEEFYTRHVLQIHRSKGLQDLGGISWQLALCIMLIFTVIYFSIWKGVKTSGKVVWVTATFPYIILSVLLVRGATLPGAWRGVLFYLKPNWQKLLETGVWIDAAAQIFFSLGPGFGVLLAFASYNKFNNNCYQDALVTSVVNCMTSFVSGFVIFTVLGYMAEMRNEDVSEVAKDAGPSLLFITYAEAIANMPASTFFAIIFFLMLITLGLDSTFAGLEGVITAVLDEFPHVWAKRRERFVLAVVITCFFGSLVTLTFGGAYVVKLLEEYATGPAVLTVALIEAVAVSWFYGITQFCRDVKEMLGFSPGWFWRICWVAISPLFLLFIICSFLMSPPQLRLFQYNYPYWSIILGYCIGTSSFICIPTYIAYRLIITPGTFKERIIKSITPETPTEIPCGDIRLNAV
T3 sequence (P23975 whole entry): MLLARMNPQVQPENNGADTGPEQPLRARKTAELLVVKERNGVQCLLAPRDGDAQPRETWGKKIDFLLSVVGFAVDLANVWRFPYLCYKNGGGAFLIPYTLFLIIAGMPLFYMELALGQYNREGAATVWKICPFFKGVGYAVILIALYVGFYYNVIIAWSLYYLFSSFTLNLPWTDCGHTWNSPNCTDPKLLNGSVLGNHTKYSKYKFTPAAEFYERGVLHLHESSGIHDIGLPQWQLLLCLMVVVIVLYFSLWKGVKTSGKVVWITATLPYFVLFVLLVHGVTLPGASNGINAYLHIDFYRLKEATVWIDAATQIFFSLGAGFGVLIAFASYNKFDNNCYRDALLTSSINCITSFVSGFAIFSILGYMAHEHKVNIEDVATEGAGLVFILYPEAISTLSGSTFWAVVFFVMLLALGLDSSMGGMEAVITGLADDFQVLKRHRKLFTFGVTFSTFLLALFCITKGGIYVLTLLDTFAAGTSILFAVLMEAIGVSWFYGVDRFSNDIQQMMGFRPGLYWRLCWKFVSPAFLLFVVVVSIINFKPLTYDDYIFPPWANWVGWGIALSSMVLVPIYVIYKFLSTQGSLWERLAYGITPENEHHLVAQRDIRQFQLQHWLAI
T1 sequence (P14416 whole entry): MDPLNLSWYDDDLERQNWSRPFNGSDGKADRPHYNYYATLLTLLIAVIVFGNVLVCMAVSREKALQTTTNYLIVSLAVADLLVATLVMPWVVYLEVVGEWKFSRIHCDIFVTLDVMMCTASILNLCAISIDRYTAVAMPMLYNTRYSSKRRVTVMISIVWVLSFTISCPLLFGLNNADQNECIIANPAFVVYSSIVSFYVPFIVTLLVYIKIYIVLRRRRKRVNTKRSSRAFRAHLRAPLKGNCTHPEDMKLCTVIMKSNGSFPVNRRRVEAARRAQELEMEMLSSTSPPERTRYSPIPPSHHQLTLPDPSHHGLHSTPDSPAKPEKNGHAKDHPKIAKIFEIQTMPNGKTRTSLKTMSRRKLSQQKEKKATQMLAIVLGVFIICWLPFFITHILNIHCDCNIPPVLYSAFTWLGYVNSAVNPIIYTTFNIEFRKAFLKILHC
T2 sequence (P34969 whole entry): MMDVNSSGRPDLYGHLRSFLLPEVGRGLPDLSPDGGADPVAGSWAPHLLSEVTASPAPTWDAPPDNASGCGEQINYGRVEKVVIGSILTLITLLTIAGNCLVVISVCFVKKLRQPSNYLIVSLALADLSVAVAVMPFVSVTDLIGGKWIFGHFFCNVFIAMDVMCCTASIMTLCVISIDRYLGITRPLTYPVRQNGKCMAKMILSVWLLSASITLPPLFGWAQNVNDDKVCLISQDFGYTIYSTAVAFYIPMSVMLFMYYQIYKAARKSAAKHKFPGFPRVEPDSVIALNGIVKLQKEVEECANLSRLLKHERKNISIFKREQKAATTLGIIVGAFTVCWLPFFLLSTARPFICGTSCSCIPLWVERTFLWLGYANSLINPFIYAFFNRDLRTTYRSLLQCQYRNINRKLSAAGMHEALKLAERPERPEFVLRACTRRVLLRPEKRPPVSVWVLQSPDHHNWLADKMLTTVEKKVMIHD
T5 sequence (P14416 1-414 isoform P14416-2): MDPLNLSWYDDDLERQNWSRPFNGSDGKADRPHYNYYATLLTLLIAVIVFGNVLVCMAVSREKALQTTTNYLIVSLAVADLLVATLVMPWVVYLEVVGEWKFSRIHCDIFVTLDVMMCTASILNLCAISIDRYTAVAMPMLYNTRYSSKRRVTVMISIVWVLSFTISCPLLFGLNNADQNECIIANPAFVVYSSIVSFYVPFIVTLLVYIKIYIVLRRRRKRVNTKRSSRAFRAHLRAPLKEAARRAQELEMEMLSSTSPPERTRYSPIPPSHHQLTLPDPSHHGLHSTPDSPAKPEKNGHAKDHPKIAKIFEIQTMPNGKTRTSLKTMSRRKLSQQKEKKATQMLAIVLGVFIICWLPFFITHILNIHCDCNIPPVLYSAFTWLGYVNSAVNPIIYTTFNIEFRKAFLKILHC
Sequence of Dopamine D3 (P35462 whole entry): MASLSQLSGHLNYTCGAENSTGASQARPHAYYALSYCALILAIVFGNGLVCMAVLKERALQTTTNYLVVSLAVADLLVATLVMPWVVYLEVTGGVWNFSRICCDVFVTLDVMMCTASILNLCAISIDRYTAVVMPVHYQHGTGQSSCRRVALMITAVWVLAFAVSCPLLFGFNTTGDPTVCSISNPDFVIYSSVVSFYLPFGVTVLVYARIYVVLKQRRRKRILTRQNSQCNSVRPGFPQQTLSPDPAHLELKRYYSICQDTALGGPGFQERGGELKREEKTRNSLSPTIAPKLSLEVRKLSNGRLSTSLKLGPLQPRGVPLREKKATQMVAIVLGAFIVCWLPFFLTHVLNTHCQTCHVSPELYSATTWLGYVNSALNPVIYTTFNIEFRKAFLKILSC
Sequence of Dopamine D1 (P21728 whole entry): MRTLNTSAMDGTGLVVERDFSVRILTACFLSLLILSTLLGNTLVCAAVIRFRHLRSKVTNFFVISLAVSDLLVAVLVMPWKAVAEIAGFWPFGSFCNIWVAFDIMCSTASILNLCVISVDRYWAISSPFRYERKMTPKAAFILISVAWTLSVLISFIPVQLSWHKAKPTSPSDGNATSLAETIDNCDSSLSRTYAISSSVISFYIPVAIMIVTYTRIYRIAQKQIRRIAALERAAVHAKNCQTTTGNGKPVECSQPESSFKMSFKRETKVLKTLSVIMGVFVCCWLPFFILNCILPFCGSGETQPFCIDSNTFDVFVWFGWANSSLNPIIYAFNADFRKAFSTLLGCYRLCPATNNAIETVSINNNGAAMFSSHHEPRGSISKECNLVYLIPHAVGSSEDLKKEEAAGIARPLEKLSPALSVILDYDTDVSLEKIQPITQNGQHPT

**Q.** What does the source list for `COC(=O)[C@@H](c1ccc(-c2ccccc2)cc1)[C@H]1C=CCCN1` [Compound 2]?
**A.** IC50 (Dopamine D2L): 88.2 µM; Ki (Dopamine D2L): 29.4 µM; inhibition at 10 µM (Dopamine D2L; Dopamine D2l, 10 μM, read-out: Percentage Inhibition): 13%; inhibition at 100 µM (Dopamine D2L; Dopamine D2l, 100 μM, read-out: Percentage Inhibition): 54%; nH (Dopamine D2L; Dopamine D2l, Hill coefficient): 0.716; inhibition at 10 µM (Dopamine D1): 17%; IC50 (Serotonin 5HT7): 25.8 µM; Ki (Serotonin 5HT7): 14.8 µM; inhibition at 30 µM (Serotonin 5HT7; Serotonin 5HT7, 30 μM, read-out: Percentage Inhibition): 53%; nH (Serotonin 5HT7; Serotonin 5HT7, Hill coefficient): 0.774; IC50 [1]: 10 µM; Ki [1]: 9.94 µM; inhibition at 10 µM ([1]; Norepinephrine transporter (NET), 10 μM, read-out: Percentage Inhibition): 51%; nH ([1]; Norepinephrine transporter (NET), Hill coefficient): 1.1; inhibition at 10 µM (Dopamine D3): 15%; IC50 [2]: 14.3 µM; Ki [2]: 2.33 µM; inhibition at 10 µM ([2]; Serotonin transporter (SERT), 10 μM, read-out: Percentage Inhibition): 48%; inhibition at 30 µM ([2]; Serotonin transporter (SERT), 30 μM, read-out: Percentage Inhibition): 70%; nH ([2]; Serotonin transporter (SERT), Hill coefficient): 1.24; IC50 (Dopamine D2s): 51.8 µM; Ki (Dopamine D2s): 18.7 µM; inhibition at 10 µM (Dopamine D2s; Dopamine D2s, 10 μM, read-out: Percentage Inhibition): 26%; inhibition at 100 µM (Dopamine D2s; Dopamine D2s, 100 μM, read-out: Percentage Inhibition): 62%; nH (Dopamine D2s; Dopamine D2s, Hill coefficient): 0.788; PPI over the control across all pre-pulse intensities (ckr mouse): trend of increased PPI
